The source of these data is PubChem BioAssay AID179 (DTP/NCI, 2004).

Molecules are shown by their SMILES. Activity calls are given as the source filed them.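 How the source made its calls: active means compounds giving half or more protection of infected cells from virus-caused growth loss, again on retest; inactive means the rest.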 A value given as a limit tells only on which side of the number the result lay.

In this assay the test system is CEM cells HIV-1 protection, formazan growth assay. The experiment in a line: NCI AIDS Antiviral Assay. The conditions noted are these: for IC50: measured here: growth of uninfected CEM cells. The method, boiled down:
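Protection of CEM cells against HIV-1 measured as cell growth via soluble formazan read-out, with five concentrations tested on both infected and uninfected cells; failure to protect may reflect toxicity.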

What is called EC50 is the midpoint of the concentration-response curve. As a reminder, the IC50 is the concentration that gives 50% inhibition. Consider `CC(C)[Si](OCC1CC(C#N)OC(C)(C)O1)(C(C)C)C(C)C` (stereo unspecified), for which the EC50 was above 200 µM and the concentration for half-maximal inhibition (IC50) worked out at 107 µM.

With `O=Nc1sc(=S)n(N2CCCCC2)c1O`, the EC50 is above 200 µM and the IC50 was found to be 105 µM.

`COC(=O)c1ccccc1OCc1cc(=O)oc2ccc(C)cc12`: the outcome was inactive.

Take `c1ccc2cc(C3NCCc4[nH]cnc43)ccc2c1` (stereo unspecified): the EC50 is above 28.8 µM and the IC50 was above 28.8 µM.

Regarding `CC(=O)NC(C=O)C(O[C@H](C)C(=O)NC(C)C(=O)NC(CCC(N)=O)C(=O)OCc1ccccc1)C(O)C(O)COC(=O)CCNc1c2ccccc2nc2cccc([N+](=O)[O-])c12` (stereo partly specified), the EC50 was above 21.4 µM and the IC50 stood at 15.1 µM.

In the case of `C[N+](C)([O-])CCC=C1c2ccccc2CCc2ccccc21`, the EC50 was above 200 µM and the IC50 was found to be 105 µM.

As for `COC(=O)c1cc(OC(C)=O)c2c(OC)ccc(OC)c2c1`, the result was inactive.

With `CC1(O)CC(C(F)(F)F)(C(F)(F)F)OC1=O` (stereo unspecified), the EC50 was above 200 µM and the IC50 was above 200 µM.

Consider `CC(=O)C1=CN=C2C(=O)N(c3ccccc3)N(C)C12C` (stereo unspecified), for which the EC50 is above 200 µM and the IC50 is above 200 µM.

As to `NC1=NS(=O)(=O)Nc2nc[nH]c21`, the EC50 is above 1320 µM and the IC50 is above 1320 µM.

For `COc1ccc2nc(NC(=O)C(=O)C(C#N)c3ccc([N+](=O)[O-])cc3)sc2c1` (stereo unspecified), the outcome was inactive.

Turning to `Nc1nc(F)nc2c1ncn2CC(O)CO` (stereo unspecified), the EC50 was above 1100 µM and the half-inhibitory concentration (IC50) is 1.78 µM.

For `COC(=O)c1ccc(NCc2cc(OC)ccc2OC)cc1`, the EC50 is above 200 µM and the IC50 is 24 µM.

In the case of `CC(/C=C/c1ccccc1)=N\N=C(C)\C=C\c1ccccc1`, the EC50 was above 13.2 µM and the IC50 was above 13.2 µM.

Take `CCOC(=O)C1=C(Nc2cccc3ccccc23)OCC1=O`: the outcome was inactive.

Regarding `C=C1CC(Cn2ccc(=O)[nH]c2=O)(c2ccc(Cl)cc2)OC1=O` (stereo unspecified), the EC50 is above 20 µM and the half-inhibitory concentration (IC50) turned out to be 0.912 µM.

In the case of `C=C1C[C@@H]2C[C@@H](C)CC(O)[C@]2(CCCN)C1O` (stereo partly specified), the outcome was inactive.

For the compound `CN1CCC2(CC1)OCCN2CCO`, the EC50 is above 1260 µM and the IC50 is above 1260 µM.

For `O[C@H]1[C@H]2c3cc4c(cc3CN3CCC(=C[C@@H]1O)[C@H]23)OCO4`, the EC50 is above 2 µM and the IC50 was 0.372 µM.

`O=c1c(SCc2ccccc2Cl)c(SCc2ccccc2Cl)cnn1-c1ccccc1`: the EC50 is above 7.76 µM and the IC50 was determined as 5.5 µM.

On to `CCN(CC)C(=S)SCn1ncc2ccc([N+](=O)[O-])cc21`, for which the EC50 is above 107 µM and the IC50 is 10 µM.

As for `O=S1(=O)Cc2ccccc21`, the EC50 is above 1170 µM and the IC50 turned out to be 589 µM.

As to `CC(C#N)(c1ccccc1)N(CCc1ccccc1)C(=O)Oc1ccccc1` (stereo unspecified), the EC50 was above 200 µM and the IC50 was above 200 µM.

For `COc1ccc(OC)c(N=Nc2cc(OC)c(N=Nc3c(O)c4ccccc4[nH]c3=O)cc2Cc2ccccc2C(=O)O)c1`, the EC50 was above 50.1 µM and the half-inhibitory concentration (IC50) stood at 31.6 µM.

As for `COc1cc(C(=O)/C=C/c2ccccc2O)ccc1O`, the EC50 is above 132 µM and the half-inhibitory concentration (IC50) was determined as 102 µM.

On to `c1cnc2c(c1)Sc1ncccc1S2`, for which the EC50 is above 115 µM and the IC50 came out at 51.3 µM.

Take `CCCCc1ccc(Nc2nc(Cl)c3c(ncn3COCCOC(C)=O)n2)cc1`: the EC50 was above 200 µM and the IC50 was determined as 33.1 µM.

Turning to `Nc1ccc(/C=C/c2ccc(N)cc2S(=O)(=O)O)c(S(=O)(=O)O)c1`, the outcome was inactive.

`Cc1cn(COCCSc2ccccc2)c(=O)[nH]c1=O`: the EC50 is above 135 µM and the IC50 turned out to be 83.2 µM.

In the case of `COc1ccc(Nc2c3sc4cc(OC)ccc4nc-3c3ccccc3c2=O)cc1`, the EC50 was above 100 µM and the IC50 is above 100 µM.

As for `Cn1cc(C(=O)/C(Cl)=C(\Cl)C(=O)O)c2ccccc21`, the outcome was inactive.

Consider `O=S1(=O)C[C@@H](O)[C@H](O)CS1`, for which the EC50 is 16.2 µM and the IC50 was found to be 166 µM.

In the case of `O=C(NCCCl)c1cc(C(F)(F)F)cc(C(F)(F)F)c1`, the outcome was inactive.

With `Cc1c2ccccc2nc(CSc2ccccc2N)[n+]1[O-]`, the EC50 was 64.6 µM and the IC50 is above 200 µM.

With `O=C(O)/C=C/C(=O)NCCCCCCNC(=O)/C=C/C(=O)O`, the result was inactive.

On to `C[S+]1CC2C3CC(C#N)C(C3)C2C1` (stereo unspecified), for which the EC50 is above 275 µM and the IC50 was above 275 µM.

`COc1ccc2cc1Oc1ccc(cc1)C[C@@H]1c3cc(c(OC)cc3CCN1C)Oc1c(OC)c(OC)cc3c1[C@H](C2)N(C)CC3`: the outcome was inactive.

`COc1ccc2oc(=N)c(C(N)=S)cc2c1`: the EC50 is above 200 µM and the half-inhibitory concentration (IC50) worked out at 26.9 µM.

For `[Co].[O-]c1cccnc1C=Nc1ccccc1.[OH3+]`, the EC50 is above 240 µM and the IC50 was determined as 35.5 µM.

As to `COC(=O)CN1SC2(SC13C(C)(C)C(=O)C3(C)C)C(C)(C)C(=O)C2(C)C`, the EC50 was above 200 µM and the IC50 came out at 50.1 µM.

For the compound `COc1cc(N=Nc2ccccc2)cc(/C=N/NC(N)=S)c1[O-].[CH2-]/[N+](=C\c1cc(N=Nc2ccccc2)cc(OC)c1[O-])NC(N)=S.[O]=[Mo+2]=[O].[O]=[Mo]=[O]`, the EC50 was above 38.9 µM and the IC50 was found to be 5.25 µM.

Take `Clc1ccc(CCn2cncn2)c(Cl)c1`: the EC50 is above 891 µM and the IC50 came to 437 µM.

On to `CCC1(OC(=O)CNC)C(=O)OCc2c1cc1n(c2=O)Cc2cc3ccccc3nc2-1` (stereo unspecified), for which the EC50 is above 10 µM and the IC50 was determined as 0.00977 µM.

With `C/C1=C\[C@@H](O)C(=O)/C=C/C=C\c2csc(n2)[C@@H](C)NC(=O)C[C@@]2(CC1)S(=O)SC(=O)[C@]2(C)O` (stereo partly specified), the EC50 was above 1.32 µM and the IC50 turned out to be 0.0055 µM.

Turning to `COc1cc(CC(C)NC(C)=O)cc(OC)c1` (stereo unspecified), the EC50 is above 200 µM and the IC50 is above 200 µM.

With `O=C1[C@@H]2C3c4ccccc4C([C@@H]2C(=O)N1c1ccccc1)S3(=O)=O`, the result was inactive.

Regarding `COC1=C(Br)[C@H](O)[C@@]2(C=C1Br)CC(C(=O)NCCCOc1c(Br)cc(C(O)CNC(C)=O)cc1Br)=NO2` (stereo partly specified), the EC50 was above 10 µM and the IC50 stood at 6.61 µM.

With `O=C(O)c1ccccc1/C=N/NC1=NCCN1`, the EC50 is above 200 µM and the IC50 was 85.1 µM.

Consider `NCCCC[C@@H](NC(=O)[C@H](CS)NC(=O)[C@@H](N)Cc1cnc[nH]1)C(=O)N[C@H](Cc1ccccc1)C(=O)N[C@H](Cc1c[nH]c2ccccc12)C(=O)N[C@@H](Cc1c[nH]c2ccccc12)C(N)=O`, for which the EC50 was above 200 µM and the IC50 is above 200 µM.

Consider `CNC1C(O)CC(OC2C/C=C(\C)C/C(C)=C/C=C/CCC(C)CNC(=O)/C=C/C=C/C2C)OC1C` (stereo unspecified), for which the EC50 was above 37.2 µM and the IC50 came to 1.95 µM.

For `O=C(Cc1nc2c3c(ccc2[nH]c1=O)C(=O)c1ccccc1C3=O)C(=O)Nc1ccccc1[N+](=O)[O-]`, the EC50 is above 38.9 µM and the concentration for half-maximal inhibition (IC50) was 10 µM.

Consider `COc1ncnc2c1ncn2C1OC(CO)CC1F` (stereo unspecified), for which the EC50 was above 186 µM and the IC50 is above 186 µM.

With `C[C@@H]1CC(=O)C2CCCC1C2=O` (stereo partly specified), the outcome was inactive.

For `O=C1CCC(O)=C1O`, the EC50 was above 2190 µM and the IC50 is above 2190 µM.

Take `CCOC(=O)/C(=C\c1ccccc1)[Se]c1ccccc1`: the EC50 was above 56.2 µM and the IC50 is above 56.2 µM.

For `CC(C)=C1C2CCC1C1CSCC21` (stereo unspecified), the EC50 was above 115 µM and the concentration for half-maximal inhibition (IC50) was above 115 µM.

Turning to `Cc1nc(OCc2ccccc2)c2ncn(CCO)c2n1`, the EC50 was above 200 µM and the IC50 is above 200 µM.

For the compound `COc1ccc(C(c2ccccc2)C(C)C(=O)c2c(C)cc(C)cc2C)cc1` (stereo unspecified), the EC50 was above 19.5 µM and the IC50 is above 19.5 µM.

Consider `C[N+](C)(C)c1ccc2c(c1)N(S(C)(=O)=O)CC2CCl` (stereo unspecified), for which the outcome was inactive.

As to `CC(C)(C)c1cc(C=C(C#N)C#N)cc(C(C)(C)C)c1O`, the EC50 is above 20 µM and the 50% inhibitory concentration (IC50) was found to be 0.372 µM.

`Cc1cc(C)c([O-])c(-[n+]2c(-c3ccccc3)cc(-c3ccccc3)cc2-c2ccccc2)c1`: the EC50 is above 17 µM and the concentration for half-maximal inhibition (IC50) was determined as 2.88 µM.

For `Nc1nnc(N)n1NC(=O)C(=O)Nc1ccc([N+](=O)[O-])cc1`, the EC50 is above 151 µM and the IC50 was above 151 µM.

Turning to `CC1=NC2(CCCCC2)N(Cl)C(=O)C1SC#N` (stereo unspecified), the EC50 was above 200 µM and the IC50 was 17.8 µM.

Consider `CCN(CCCl)c1cc(CN(C)C)cc(NC(=O)c2ccc(C(=O)Nc3cc(CN(C)C)cc(N(CC)CCCl)c3)cc2)c1`, for which the EC50 was above 2 µM and the IC50 is 0.000631 µM.

Take `Cc1nc2c(nc1C)C(=O)C(Cl)=CC2=O`: the result was inactive.

Regarding `CC/C=C/c1cc2cc[nH]c2c2c1C(C)C[C@@H]2C` (stereo partly specified), the result was inactive.

Turning to `COc1cc(C(=O)C/C(CCC(=O)Nc2ccccc2[N+](=O)[O-])=N\NC(=O)C(N)=O)ccc1O`, the EC50 is above 145 µM and the IC50 is above 145 µM.

Consider `OC[C@H](O)[C@@H](OCc1ccccc1)[C@H](NCc1ccccc1)c1cccs1`, for which the EC50 was above 200 µM and the IC50 was 97.7 µM.

As to `COC(=O)[C@@H]1CCCN1CCN1CCC[C@H]1C(=O)OC`, the EC50 is above 200 µM and the IC50 is above 200 µM.

As for `CCC(=O)C(C)C(=O)C(=O)NCCNC(=O)C(=O)C(C)C(=O)CC` (stereo unspecified), the result was inactive.

Turning to `Nc1ccc(C(=O)N/C(=C\c2ccc3c(c2)OCO3)c2nc3ccc4c(c3[nH]2)C(=O)c2ccccc2C4=O)cc1`, the result was inactive.

In the case of `O=C1Sc2cc([N+](=O)[O-])ccc2C(=O)N2CSCC12` (stereo unspecified), the EC50 was above 50.1 µM and the 50% inhibitory concentration (IC50) is above 50.1 µM.

As to `OC1c2ccccc2C(O)C2OC12` (stereo unspecified), the EC50 was above 200 µM and the IC50 worked out at 115 µM.

On to `S=C1C(=Nc2ccccc2)N(c2ccccc2)/C(=N\c2cccc[n+]2Cc2ccccc2)N1c1ccccc1`, for which the EC50 is 15.5 µM and the IC50 is 27.5 µM.
